Measured values: patent EP4624466A1, “DEGRADER FOR DECOMPOSING CMET PROTEIN, AND PHARMACEUTICAL COMPOSITION COMPRISING SAME” (Innocure Therapeutics, Inc., priority 2022, dated 2024)
Where two headings read alike, the source gives them in different places.

Assays:
MKN-45 = test: Cell viability / antiproliferative assay (WST-8), MKN-45; conditions: read-out: MKN-45 IC50;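 also: MKN-45 is a human gastric cancer line overexpressing c-MET, growth inhibition read as WST-8 formazan absorbance at 450 nm after 2 h dye incubation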
Method: c-MET overexpressing human gastric cancer cell lines [MKN45] and [SNU638] were cultured in RPMI medium with 10% fetal bovine serum, penicillin (100U/ml), and streptomycin (100mg/ml), and c-MET exon 14 skipping mutant human gastric cancer cell lines [Hs746T] were cultured in DMEM media. The c-MET overexpressing human lung cancer cell line EBC-1 was cultured in MEM media with the addition of 10% fetal bovine serum, penicillin (100U/ml), and streptomycin (100mg/ml). […] The compound synthesized in accordance with the present invention was prepared with a raw material solution of 10 mM dissolved in DMSO (dimethyl sulfoxide), and was sequentially diluted and processed.
In order to observe the inhibitory activity on cell growth, cells were dispensed in a 96-well plate at a concentration of 5,000 cells/well, and then treated with the compound prepared at various concentrations for 72 hours. The viability of the cells was calculated using GraphicPad Prism 8.0 software by adding 10 ml per well of WST-8 (water soluble tetrazolium salt) sample, which reacts with dehydrogenase present in the electron transport system of mitochondria to produce formazon, incubated for 2 hours, and measured absorbance at 450 nm.

c-MET = c-MET (Homo sapiens, UniProt P08581); test: c-MET protein degradation (Simple Western), MKN-45; format: cell-based; set-up: assess the resolution of the compound of the present invention for c-MET expressed in cells; endogenous in cells; host or cells: MKN45 (human gastric cancer); conditions: c-MET overexpressing gastric cancer cell line MKN-45, treated 24 hours
c-MET, sequence (P08581 25-1390): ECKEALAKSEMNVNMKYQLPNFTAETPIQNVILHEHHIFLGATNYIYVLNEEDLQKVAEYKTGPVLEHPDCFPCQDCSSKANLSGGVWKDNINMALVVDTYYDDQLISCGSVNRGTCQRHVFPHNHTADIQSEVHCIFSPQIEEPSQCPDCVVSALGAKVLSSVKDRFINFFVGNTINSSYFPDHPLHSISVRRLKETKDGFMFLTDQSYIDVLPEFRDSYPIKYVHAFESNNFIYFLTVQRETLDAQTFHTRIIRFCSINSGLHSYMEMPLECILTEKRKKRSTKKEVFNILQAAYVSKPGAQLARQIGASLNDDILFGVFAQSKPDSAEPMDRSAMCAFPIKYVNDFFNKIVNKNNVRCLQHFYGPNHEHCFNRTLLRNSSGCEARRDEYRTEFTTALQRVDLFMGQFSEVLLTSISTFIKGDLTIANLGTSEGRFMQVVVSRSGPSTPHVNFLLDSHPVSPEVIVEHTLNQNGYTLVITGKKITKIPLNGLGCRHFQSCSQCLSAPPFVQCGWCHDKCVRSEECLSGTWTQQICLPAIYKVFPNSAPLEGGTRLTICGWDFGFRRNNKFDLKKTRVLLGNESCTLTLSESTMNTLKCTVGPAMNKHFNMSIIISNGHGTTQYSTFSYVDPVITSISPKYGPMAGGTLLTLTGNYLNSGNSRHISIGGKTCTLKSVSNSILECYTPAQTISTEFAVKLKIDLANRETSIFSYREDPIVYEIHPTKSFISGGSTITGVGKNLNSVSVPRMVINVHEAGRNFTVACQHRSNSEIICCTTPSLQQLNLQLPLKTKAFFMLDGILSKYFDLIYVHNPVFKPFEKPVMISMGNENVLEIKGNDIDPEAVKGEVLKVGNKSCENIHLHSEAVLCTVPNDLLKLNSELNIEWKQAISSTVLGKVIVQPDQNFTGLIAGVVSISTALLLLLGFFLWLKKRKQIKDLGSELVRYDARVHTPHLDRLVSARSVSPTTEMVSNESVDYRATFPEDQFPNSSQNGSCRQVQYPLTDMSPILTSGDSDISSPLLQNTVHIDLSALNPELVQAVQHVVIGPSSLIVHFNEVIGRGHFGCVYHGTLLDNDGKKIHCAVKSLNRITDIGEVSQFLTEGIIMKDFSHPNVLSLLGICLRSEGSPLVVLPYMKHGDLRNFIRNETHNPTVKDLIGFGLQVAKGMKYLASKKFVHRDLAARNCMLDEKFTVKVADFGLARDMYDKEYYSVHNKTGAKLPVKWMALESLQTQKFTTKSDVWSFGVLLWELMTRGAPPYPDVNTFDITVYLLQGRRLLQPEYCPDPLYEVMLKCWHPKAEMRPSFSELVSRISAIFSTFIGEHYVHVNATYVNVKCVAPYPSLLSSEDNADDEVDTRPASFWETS
Method: In order to assess the resolution of the compound of the present invention for c-MET expressed in cells, cells were dispensed in a 12-well plate at a concentration of 2 × 10^5 cells/well, and then gastric cancer cell lines were treated with samples for 24 hours and lung cancer cell lines were treated for 48 hours. Cell lysates were collected using a scraper on ice, centrifuged at 4°C15,000 rpm for 30 min to obtain a protein-containing supernatant. Protein expression was then measured using the Simple Western Automated Western Blot System Abby instrument using 3 µg of protein for each sample. SDS and heat-induced denaturation proteins were separated by molecular weight, attached to capillary, reacted with anti-c-MET or anti-GAPDH antibodies, which are primary antibodies, and then reacted with HRP-conjugated secondary antibodies, and analyzed the protein expression signal with compass software. Protein expression was normalized based on the expression value of GAPDH, and protein development in each sample was measured as a percentage (%) based on 100% of samples treated with 0.1% DMSO carriers, and DC50 (concentration of a compound where 50% protein inhibition is achieved) was calculated from the change in protein expression amount due to compound treatment.

[1] = MKN-45 cells, 72 hours, WST-8, Table 1

Compound	IC50 (MKN-45; [1])	DC50 (c-MET; Table 1)	IC50 (MKN-45; Homo sapiens, MKN-45, 72 h)	DC50 (c-MET; Table 2)
3-(6-(4-((1-(4-(1-(2-((S)-2-((5-(1-methyl-1H-pyrazole-4-yl)-1H-[1,2,3]triazolo[4,5-b]pyrazine-1-yl)methyl)morpholino)pyrimidine-5-il)benzyl)piperidine-4-il)methyl)piperazine-1-yl)piperazine-1-yl)1-oxopthalazine-2(1H)-yl)piperidine-2,6-dione [ICT-0000978]	< 0.1 µM	0.1 to 1 µM		
N#Cc1cccc(-c2ccc(=O)n(Cc3cccc(-c4ncc(OCC5CCN(C(=O)CCCCN6CCN(c7ccc8c(=O)n(C9CCC(=O)NC9=O)ncc8c7)CC6)CC5)cn4)c3)n2)c1 (centres unmarked) [ICT-0001201, 3-(1-{[3-(5-{[1-(5-{4-[2-(2,6-dioxopiperidin-3-yl)-1-oxo-1,2-dihydropetalazine-6-yl]piperazine-1-yl}pentanoyl)piperidine-4-il]methoxy}pyrimidine-2-yl)phenyl]methyl}6-oxo-1,6-dihydropyridazine-3-yl)benzonitrile]			< 0.1 µM	< 0.1 µM
Cn1cc(-c2cnc3c(nnn3C[C@@H]3CN(c4ncc(-c5ccc(CN6CCN(C(=O)CN7CCN(c8ccc9c(=O)n(C%10CCC(=O)NC%10=O)ncc9c8)CC7)CC6)cc5)cn4)CCO3)n2)cn1 (some centres unmarked) [ICT-0001109]		< 0.1 µM	< 0.1 µM	
Cn1cc(-c2cnc3c(nnn3C[C@@H]3CN(c4ncc(-c5ccc(CN6CCN(C(=O)CCCNc7cccc8cnn(C9CCC(=O)NC9=O)c(=O)c78)CC6)cc5)cn4)CCO3)n2)cn1 (some centres unmarked) [ICT-0000969]		< 0.1 µM	< 0.1 µM	
Cn1cc(-c2cnc3c(nnn3C[C@@H]3CN(c4ncc(-c5ccc(CN6CCN(C(=O)COCCOCCOCCNc7ccc8c(=O)n(C9CCC(=O)NC9=O)ncc8c7)CC6)cc5)cn4)CCO3)n2)cn1 (stereo partly drawn) [ICT-0000938, 3-[6-(12-{4-[(4-{2-[(2S)-2-{[5-(1-methyl-1H-pyrazole-4-yl)-1H-[1,2,3]triazolo[4,5-b]pyrazine-1-yl]methyl}morpholine-4-day]pyrimidine-5-yl}phenyl)methyl]piperazine-1-yl}-12-oxo-4,7,10-trioxa-1-azadodecane-1-yl)-1-oxo-1,2-dihydroptalazine-2-yl]piperidine-2,6-dione]		> 1 µM	0.1 to 1 µM	
Cc1nn(C2CCC(=O)NC2=O)c(=O)c2ccc(N3CCN(C[C@@H]4CN(C(=O)CN5CCC(COc6cnc(-c7cccc(Cn8nc(-c9cccc(C#N)c9)ccc8=O)c7)nc6)CC5)CCO4)CC3)cc12 (some centres unmarked) [ICT-0001258]			< 0.1 µM	< 0.1 µM
Cc1nn(C2CCC(=O)NC2=O)c(=O)c2ccc(N3CCN(CC4CN(CC(=O)N5CCC(COc6cnc(-c7cccc(Cn8nc(-c9cccc(C#N)c9)ccc8=O)c7)nc6)CC5)C4)CC3)cc12 (centres unmarked) [ICT-0001253]			< 0.1 µM	< 0.1 µM
Cc1nn(C2CCC(=O)NC2=O)c(=O)c2ccc(N3CCN(C(=O)CN4CCC(COc5cnc(-c6cccc(Cn7nc(-c8cccc(C#N)c8)ccc7=O)c6)nc5)CC4)CC3)cc12 (centres unmarked) [ICT-0001177, 3-(1-{[3-(5-{[1-(2-{4-[2-(2,6-dioxopiperidin-3-yl)-4-methyl-1-oxo-1,2-dihydropthalazine-6-yl]piperazine-1-yl}-2-oxoethyl)piperidine-4-yl]methoxy}pyrimidine-2-yl)phenyl]methyl}-6-oxo-1,6-dihydropyridazine-3-yl)benzonitrile]			< 0.1 µM	< 0.1 µM
Cc1nn(C2CCC(=O)NC2=O)c(=O)c2ccc(N3CCC(NC4CCN(CC(=O)N5CCC(COc6cnc(-c7cccc(Cn8nc(-c9cccc(C#N)c9)ccc8=O)c7)nc6)CC5)CC4)CC3)cc12 (centres unmarked) [ICT-0001219]			< 0.1 µM	< 0.1 µM
Cc1nn(C2CCC(=O)NC2=O)c(=O)c2ccc(N3CCN(CCCCC(=O)N4CCC(COc5cnc(-c6cccc(Cn7nc(-c8cccc(C#N)c8)ccc7=O)c6)nc5)CC4)CC3)cc12 (centres unmarked) [ICT-0001176]			< 0.1 µM	< 0.1 µM
Cc1nn(C2CCC(=O)NC2=O)c(=O)c2ccc(NCCOCCOCC(=O)N3CCC(COc4cnc(-c5cccc(Cn6nc(-c7cccc(C#N)c7)ccc6=O)c5)nc4)CC3)cc12 (centres unmarked) [ICT-0001087]			< 0.1 µM	< 0.1 µM
Cc1nn(C2CCC(=O)NC2=O)c(=O)c2cc(N3CCC(N4CCN(C(=O)CN5CCC(COc6cnc(-c7cccc(Cn8nc(-c9cccc(C#N)c9)ccc8=O)c7)nc6)CC5)CC4)CC3)ccc12 (centres unmarked) [ICT-0001233, 3-(1-(3-(5-((1-(2-(4-(1-(3-(2,6-dioxopiperidine-3-yl)-1-methyl-4-oxo-3,4-dihydropthalazine-6-yl)piperidine-4-yl)piperazine-1-yl)2-oxoethyl)piperidine-4-il)methoxy)pyrimidine-2-yl)benzyl)6-oxo-1,6-dihydropyridine-3-yl)benzonitrile]			< 0.1 µM	< 0.1 µM
Cc1nn(C2CCC(=O)NC2=O)c(=O)c2ccc(N3CCN(CCC(=O)N4CCC(COc5cnc(-c6cccc(Cn7nc(-c8cccc(C#N)c8)ccc7=O)c6)nc5)CC4)CC3)cc12 (centres unmarked) [ICT-0001174]			< 0.1 µM	< 0.1 µM
Cn1cc(-c2cnc3c(nnn3C[C@@H]3CN(c4ncc(-c5ccc(CN6CCN(C(=O)COCCOCCOCCOCCNc7ccc8c(=O)n(C9CCC(=O)NC9=O)ncc8c7)CC6)cc5)cn4)CCO3)n2)cn1 (stereo partly drawn) [ICT-0000939, 3-[6-(15-{4-[(4-{2-[(2S)-2-{[5-(1-methyl-1H-pyrazole-4-yl)-1H-[1,2,3]triazolo[4,5-b]pyrazine-1-yl]methyl}morpholine-4-il]pyrimidine-5-yl}phenyl)methyl]piperazine-1-yl}-15-oxo-4,7,10,13-tetraoxa-1-azpentadecan-1-yl)-1-oxo-1,2-dihydroptalazine-2-yl]piperidin-2,6-dione]	0.1 to 1 µM	> 1 µM		
N#Cc1cccc(-c2ccc(=O)n(Cc3cccc(-c4ncc(OCC5CCN(C(=O)CCN6CCN(c7ccc8c(=O)n(C9CCC(=O)NC9=O)ncc8c7)CC6)CC5)cn4)c3)n2)c1 (centres unmarked) [ICT-0001199, 3-(1-{[3-(5-{[1-(3-{4-[2-(2,6-dioxopiperidin-3-yl)-1-oxo-1,2-dihydropthalazine-6-yl]piperazine-1-yl}propanoyl)piperidine-4-il]methoxy}pyrimidin-2-yl)phenyl]methyl}-6-oxo-1,6-dihydropyridazine-3-yl)benzonitrile]			< 0.1 µM	< 0.1 µM
Cc1nn(C2CCC(=O)NC2=O)c(=O)c2ccc(NCCCCCC(=O)N3CCC(COc4cnc(-c5cccc(Cn6nc(-c7cccc(C#N)c7)ccc6=O)c5)nc4)CC3)cc12 (centres unmarked) [ICT-0000990]			0.1 to 1 µM	0.1 to 1 µM
N#Cc1cccc(-c2ccc(=O)n(Cc3cccc(-c4ncc(OCC5CCN(C(=O)COCCOCCNc6ccc7c(=O)n(C8CCC(=O)NC8=O)ncc7c6)CC5)cn4)c3)n2)c1 (centres unmarked) [ICT-0000986]			< 0.1 µM	< 0.1 µM
N#Cc1cccc(-c2ccc(=O)n(Cc3cccc(-c4ncc(OCC5CCN(C(=O)COCCOCCOCCOCCNc6ccc7c(=O)n(C8CCC(=O)NC8=O)ncc7c6)CC5)cn4)c3)n2)c1 (centres unmarked) [ICT-0000988, 3-(1-{[3-(5-{[1-(14-{[2-(2,6-dioxopiperidin-3-yl)-1-oxo-1,2-dihydroptalazine-6-yl]amino}-3,6,9,12-tetradecanoyl)piperidin-4-yl]methoxy}pyrimidine-2-yl)phenyl]methyl}-6-oxo-1,6-dihydropyridazine-3-yl)benzonitrile]			0.1 to 1 µM	< 0.1 µM
Cc1nn(C2CCC(=O)NC2=O)c(=O)c2cc(F)c(N3CCN(CC4CCN(CC(=O)N5CCC(COc6cnc(-c7cccc(Cn8nc(-c9cccc(C#N)c9)ccc8=O)c7)nc6)CC5)CC4)CC3)cc12 (centres unmarked) [ICT-0001272]			< 0.1 µM	< 0.1 µM
